Positions count from the first letter of the chain named.
Columns and labels:
Assay in all cases: Calcium assay, HEK293/Gα16 cells, GAL2R mutants
Assay type in all cases: cell-based
GAL2R mutants [1] = target: T1, GAL2R mutants (Homo sapiens, UniProt O43603, H102A); settings: GAL2R H1023.29A
T1 construct: expressed in transfected cells; host or cells: HEK293
T1 sequence (O43603 1-387 H102A): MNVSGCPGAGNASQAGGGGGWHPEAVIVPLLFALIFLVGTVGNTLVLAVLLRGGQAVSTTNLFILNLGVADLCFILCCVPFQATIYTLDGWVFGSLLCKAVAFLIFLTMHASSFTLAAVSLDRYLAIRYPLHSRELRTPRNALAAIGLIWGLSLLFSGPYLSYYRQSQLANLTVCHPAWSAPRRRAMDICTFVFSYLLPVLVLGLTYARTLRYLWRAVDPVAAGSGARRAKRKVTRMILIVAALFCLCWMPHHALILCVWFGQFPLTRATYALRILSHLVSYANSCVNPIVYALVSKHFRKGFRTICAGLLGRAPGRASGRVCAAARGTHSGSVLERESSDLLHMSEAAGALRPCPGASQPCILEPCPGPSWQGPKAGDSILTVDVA

GAL2R mutants [2] = target: T2, GAL2R mutants (Homo sapiens, UniProt O43603, I256A); settings: GAL2R I2566.55A
T2 construct: expressed in transfected cells; host or cells: HEK293
T2 sequence (O43603 1-387 I256A): T1 sequence (O43603 1-387 H102A) with A102H, I256A

GAL2R mutants [3] = target: T3, GAL2R mutants (Homo sapiens, UniProt O43603, Q82A); settings: GAL2R Q822.61A
T3 construct: expressed in transfected cells; host or cells: HEK293
T3 sequence (O43603 1-387 Q82A): T1 sequence (O43603 1-387 H102A) with Q82A, A102H

GAL2R mutants [4] = target: T4, GAL2R mutants (Homo sapiens, UniProt O43603, R184A); settings: GAL2R R1845.35A
T4 construct: expressed in transfected cells; host or cells: HEK293
T4 sequence (O43603 1-387 R184A): T1 sequence (O43603 1-387 H102A) with A102H, R184A

GAL2R mutants [5] = target: T5, GAL2R mutants (Homo sapiens, UniProt O43603, V259A); settings: GAL2R V2596.58A
T5 construct: expressed in transfected cells; host or cells: HEK293
T5 sequence (O43603 1-387 V259A): T1 sequence (O43603 1-387 H102A) with A102H, V259A

[6] = response of 100 μM spexin compared to WT
[7] = response of 100 μM spexin compared to WT, mean ± S.E.M.

## spexin
GAL2R mutants [1]; [6]
  Emax: NR (NR, no response, refers to response < 10% compared to WT receptor (spexin at 100 μM))
GAL2R mutants [1]; spexin, replicate 1
  Emax: no response
GAL2R mutants [1]; spexin, replicate 2
  Emax: no response
GAL2R mutants [1]; spexin, replicate 3
  Emax: no response
GAL2R mutants [2]; [7]
  Emax: 67.24±0.5%
GAL2R mutants [2]; spexin, replicate 1
  Emax: 66.4324%
GAL2R mutants [2]; spexin, replicate 2
  EC50: 437.9 nM
  Emax: 67.278%
GAL2R mutants [2]; spexin, replicate 3
  EC50: 924.3 nM
  Emax: 68.0243%
GAL2R mutants [3]; [6]
  Emax: NR (NR, no response, refers to response < 10% compared to WT receptor (spexin at 100 μM))
GAL2R mutants [3]; spexin, replicate 1
  Emax: no response
GAL2R mutants [3]; spexin, replicate 2
  Emax: no response
GAL2R mutants [3]; spexin, replicate 3
  Emax: no response
GAL2R mutants [4]; [7]
  Emax: 32.36±1.6%
GAL2R mutants [4]; spexin, replicate 1
  EC50: 371.2 nM
  Emax: 29.7886%
GAL2R mutants [4]; spexin, replicate 2
  EC50: 973.1 nM
  Emax: 32.1089%
GAL2R mutants [4]; spexin, replicate 3
  EC50: 10580 nM
  Emax: 35.1728%
GAL2R mutants [5]; [7]
  Emax: 68.4±5.7%
GAL2R mutants [5]; spexin, replicate 1
  EC50: 1.328 µM
  Emax: 60.401%
GAL2R mutants [5]; spexin, replicate 2
  EC50: 6.622 µM
  Emax: 65.4165%
GAL2R mutants [5]; spexin, replicate 3
  EC50: 6.153 µM
  Emax: 79.3756%

Reference: paper PMC8924211 (Nature Communications, 2022)
